Source: US20260116921A1, “PEPTIDE INHIBITORS OF INTERLEUKIN-23 RECEPTOR AND THEIR USE TO TREAT INFLAMMATORY DISEASES” (priority 2018, published 2026)
Bridge positions count the residues as written; N and C are the ends. Square brackets hold non-standard residues; d marks the D form. Peptide text beside a SMILES is read from it. Trp(7-Me) = Cc1cccc2c(C[C@H](N)C(=O)O)c[nH]c12; 2Nal = N[C@@H](Cc1ccc2ccccc2c1)C(=O)O; AEF = NCCOc1ccc(C[C@H](N)C(=O)O)cc1; Cit = NC(=O)NCCC[C@H](N)C(=O)O; Pen = CC(C)(S)[C@H](N)C(=O)O; αMeK = C[C@](N)(CCCCN)C(=O)O

What was measured:
in vitro [1] = assay type: in vitro ADME; parameters: half-life: dose or concentration left out as unconfirmed; conditions: simulated intestinal fluid (SIF) with pancreatin, pH 6.8, 37° C., § matrix is 100 fold dilution of standard SIF concentration, read-out: SIF t½ (converted)
Description: SIF was prepared by adding 6.8 g of monobasic potassium phosphate and 10.0 g of pancreatin to 1.0 L of water. After dissolution, the pH was adjusted to 6.8 using NaOH. DMSO stocks (2 mM) were first prepared for the test compounds. Aliquots of the DMSO solutions were dosed into 6 individual tubes, each containing 0.5 mL of SIF, which is pre-warmed to 37° C. The final test compound concentration was 20 M. The vials were kept in a benchtop Thermomixer® for the duration of the experiment. At each timepoint (0, 5, 10, 20, 40, 60, or 360 minutes or 24 hours), 1.0 mL of acetonitrile containing 1% formic acid was added to one vial to terminate the reaction. Samples were stored at 4° C. until the end of the experiment. After the final timepoint is sampled, the tubes were mixed and then centrifuged at 3,000 rpm for 10 minutes. Aliquots of the supernatant were removed, diluted 1:1 into distilled water containing internal standard, and analyzed by LCMS/MS. Percent remaining at each timepoint was calculated based on the peak area response ratio of test to compound to internal standard. Time 0 was set to 100%, and all later timepoints were calculated relative to time 0. Half-lives were calculated by fitting to a first-order exponential decay equation using Graphpad.

IL-23R = target: T1, IL-23R (Homo sapiens, UniProt Q5VWK5); assay: DB cells IL23R pSTAT3 cell assay (pStat3 HTRF); assay type: cell-based; conditions: Table E3; DB cells, IL-23 0.5 nM, 30 minutes at 37° C.; read-out: pStat3 HTRF (IC50)
T1 sequence (Q5VWK5 24-629): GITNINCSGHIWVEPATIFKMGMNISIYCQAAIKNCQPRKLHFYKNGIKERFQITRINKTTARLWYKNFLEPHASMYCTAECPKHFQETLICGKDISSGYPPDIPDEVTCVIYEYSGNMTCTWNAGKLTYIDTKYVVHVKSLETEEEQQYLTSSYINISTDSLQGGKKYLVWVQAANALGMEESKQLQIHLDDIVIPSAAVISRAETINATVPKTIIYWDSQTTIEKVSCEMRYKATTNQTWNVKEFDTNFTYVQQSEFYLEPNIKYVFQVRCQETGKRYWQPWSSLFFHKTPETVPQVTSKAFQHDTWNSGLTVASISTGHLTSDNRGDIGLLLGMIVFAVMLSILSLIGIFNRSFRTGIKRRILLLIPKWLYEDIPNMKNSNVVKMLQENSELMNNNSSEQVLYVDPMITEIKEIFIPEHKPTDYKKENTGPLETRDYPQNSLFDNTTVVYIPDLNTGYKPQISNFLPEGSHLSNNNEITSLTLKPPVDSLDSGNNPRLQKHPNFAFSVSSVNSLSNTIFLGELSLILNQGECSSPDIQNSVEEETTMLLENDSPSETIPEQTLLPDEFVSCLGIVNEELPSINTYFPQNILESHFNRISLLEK
In short: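 DB cells (5×10E5/well, RPMI-1640 + 10% FBS) stimulated with 0.5 nM final IL-23 plus serially diluted test peptides for 30 min at 37 °C, 5% CO2. Phospho-STAT3 (Tyr705) in lysates measured by HTRF using a two-plate protocol.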

in vitro [2] = conditions: both, SD, rat, plasma (EDTA)
Description: Peptides of interest (20 μM) were incubated with pre-warmed rat plasma (SD rat, mixed gender pooled, EDTA, filtered through 0.22 μm, BioreclamationIVT) at 37° C. […] Quenched samples were stored at 4° C. until the end of the experiment and centrifuged at 4,000 rpm for 10 minutes. The supernatant were diluted 1:1 with deionized water and analyzed using LC-MS. Percentage remaining at each time point was calculated based on the peak area ratio (analyte over internal standard) relative to the initial level at time zero. Half-lives were calculated by fitting to a first-order exponential decay equation using GraphPad.

in vitro [3] = conditions: human, 20% fecal homogenate (supernatant), anaerobic, pH 6.8
in vitro [4] = conditions: cynomolgus monkey, 20% fecal homogenate (supernatant), anaerobic, pH 6.8

Row | SMILES | half-life (in vitro [1]) [h] | IC50 (IL-23R) [nM] | half-life at 20 μM (in vitro [2]) [h] | half-life at 20 μM (in vitro [3]) [h] | half-life at 20 μM (in vitro [4]) [h]
1 | CC(=O)NCCCC[C@@H]1NC(=O)[C@H](Cc2c[nH]c3c(C)cccc23)NC(=O)[C@H]([C@@H](C)O)NC(=O)[C@H](CC(N)=O)NC(=O)[C@@H](NC(C)=O)C(C)(C)SSC(C)(C)[C@@H](C(=O)N[C@@H](Cc2ccc(OCCN)cc2)C(=O)N[C@@H](Cc2ccc3ccccc3c2)C(=O)N[C@@](C)(CCCCN)C(=O)N[C@@H](CCCCNC(C)=O)C(=O)N[C@@H](CC(N)=O)C(=O)N[C@@H](CCCNC(=N)N)C(N)=O)NC1=O [compound 243] | < 1 | 1 to 10 | 21 | 1 | 
2 | CC(=O)NCCCC[C@@H]1NC(=O)[C@H](Cc2c[nH]c3c(C)cccc23)NC(=O)[C@H]([C@@H](C)O)NC(=O)[C@H](CC(N)=O)NC(=O)[C@@H](NC(C)=O)C(C)(C)SSC(C)(C)[C@@H](C(=O)N[C@@H](Cc2ccc(OCCN)cc2)C(=O)N[C@@H](Cc2ccc3ccccc3c2)C(=O)N[C@@](C)(CCCCN)C(=O)N[C@@H](CCCCNC(C)=O)C(=O)N[C@@H](CC(N)=O)C(=O)N[C@@H](CC(C)C)C(N)=O)NC1=O [compound 244] | 1 | 1 to 10 | > 24 | 19 | 
3 | CC(=O)NCCCC[C@@H]1NC(=O)[C@H](Cc2c[nH]c3c(C)cccc23)NC(=O)[C@H]([C@@H](C)O)NC(=O)[C@H](CC(N)=O)NC(=O)[C@@H](NC(C)=O)C(C)(C)SSC(C)(C)[C@@H](C(=O)N[C@@H](Cc2ccc(OCCN)cc2)C(=O)N[C@@H](Cc2ccc3ccccc3c2)C(=O)N[C@@](C)(CCCCN)C(=O)N[C@@H](CCCCNC(C)=O)C(=O)N[C@@H](CC(N)=O)C(=O)N[C@@H](Cc2c[nH]cn2)C(N)=O)NC1=O [compound 248] | 3 |  | > 24 | > 24 | 6
4 | CC(=O)NCCCC[C@@H]1NC(=O)[C@H](Cc2c[nH]c3c(C)cccc23)NC(=O)[C@H]([C@@H](C)O)NC(=O)[C@H](CC(N)=O)NC(=O)[C@@H](NC(C)=O)C(C)(C)SSC(C)(C)[C@@H](C(=O)N[C@@H](Cc2ccc(OCCN)cc2)C(=O)N[C@@H](Cc2ccc3ccccc3c2)C(=O)N[C@@](C)(CCCCN)C(=O)N[C@@H](CCCCNC(C)=O)C(=O)N[C@@H](CC(N)=O)C(=O)N[C@@H](CCCNC(N)=O)C(N)=O)NC1=O [compound 249] | 7 | < 1 | > 24 | > 24 | 5
5 | CC(=O)NCCCC[C@@H]1NC(=O)[C@H](Cc2c[nH]c3c(C)cccc23)NC(=O)[C@H]([C@@H](C)O)NC(=O)[C@H](CC(N)=O)NC(=O)[C@@H](NC(C)=O)C(C)(C)SSC(C)(C)[C@@H](C(=O)N[C@@H](Cc2ccc(OCCN)cc2)C(=O)N[C@@H](Cc2ccc3ccccc3c2)C(=O)N[C@@](C)(CCCCN)C(=O)N[C@@H](CCCCNC(C)=O)C(=O)N[C@@H](CC(N)=O)C(=O)N[C@H](C(N)=O)C(C)C)NC1=O [compound 250] | 17 | 1 to 10 | > 24 | > 24 | 12
6 | CC(=O)NCCCC[C@@H]1NC(=O)[C@H](Cc2c[nH]c3c(C)cccc23)NC(=O)[C@H]([C@@H](C)O)NC(=O)[C@H](CC(N)=O)NC(=O)[C@@H](NC(C)=O)C(C)(C)SSC(C)(C)[C@@H](C(=O)N[C@@H](Cc2ccc(OCCN)cc2)C(=O)N[C@@H](Cc2ccc3ccccc3c2)C(=O)N[C@@](C)(CCCCN)C(=O)N[C@@H](CCCCNC(C)=O)C(=O)N[C@@H](CC(N)=O)C(=O)N[C@@H](C(N)=O)C(C)C)NC1=O [compound 251] | 22 | < 1 | > 24 | > 24 | > 24
7 | CC(=O)NCCCC[C@@H]1NC(=O)[C@H](Cc2c[nH]c3c(C)cccc23)NC(=O)[C@H]([C@@H](C)O)NC(=O)[C@H](CC(N)=O)NC(=O)[C@@H](NC(C)=O)C(C)(C)SSC(C)(C)[C@@H](C(=O)N[C@@H](Cc2ccc(OCCN)cc2)C(=O)N[C@@H](Cc2ccc3ccccc3c2)C(=O)N[C@@](C)(CCCCN)C(=O)N[C@@H](CCCCNC(C)=O)C(=O)N[C@@H](CC(N)=O)C(=O)N2CCC[C@H]2C(N)=O)NC1=O [compound 253] | 11 | 1 to 10 | > 24 | 1 | 3
8 | CC(=O)NCCCC[C@@H]1NC(=O)[C@H](Cc2c[nH]c3c(C)cccc23)NC(=O)[C@H]([C@@H](C)O)NC(=O)[C@H](CC(N)=O)NC(=O)[C@@H](NC(C)=O)C(C)(C)SSC(C)(C)[C@@H](C(=O)N[C@@H](Cc2ccc(OCCN)cc2)C(=O)N[C@@H](Cc2ccc3ccccc3c2)C(=O)N[C@@](C)(CCCCN)C(=O)N[C@@H](CCCCNC(C)=O)C(=O)N[C@@H](CC(N)=O)C(=O)N2CCC[C@@H]2C(N)=O)NC1=O [compound 254] | 16 | 1 to 10 | 12 | > 24 | > 24
9 | CC[C@H](C)[C@H](NC(=O)[C@H](CC(N)=O)NC(=O)[C@H](CCCCNC(C)=O)NC(=O)[C@](C)(CCCCN)NC(=O)[C@H](Cc1ccc2ccccc2c1)NC(=O)[C@H](Cc1ccc(OCCN)cc1)NC(=O)[C@H]1NC(=O)[C@H](CCCCNC(C)=O)NC(=O)[C@H](Cc2c[nH]c3c(C)cccc23)NC(=O)[C@H]([C@@H](C)O)NC(=O)[C@H](CC(N)=O)NC(=O)[C@@H](NC(C)=O)C(C)(C)SSC1(C)C)C(N)=O [compound 255] | 19 | 1 to 10 | > 24 | > 24 | 15
10 | CC(=O)NCCCC[C@H](NC(=O)[C@](C)(CCCCN)NC(=O)[C@H](Cc1ccc2ccccc2c1)NC(=O)[C@H](Cc1ccc(OCCN)cc1)NC(=O)[C@H]1NC(=O)[C@H](CCCNC(N)=O)NC(=O)[C@H](Cc2c[nH]c3c(C)cccc23)NC(=O)[C@H]([C@@H](C)O)NC(=O)[C@H](CC(N)=O)NC(=O)[C@@H](NC(C)=O)C(C)(C)SSC1(C)C)C(=O)N[C@@H](CC(N)=O)C(=O)N[C@H](Cc1ccccc1)C(N)=O [compound 257] (Ac-[Pen]NT[Trp(7-Me)][Cit][Pen][AEF][2Nal][αMeK]K(Ac)N[dF]-NH2; disulfide 1-6) | 5 | 1 to 10 | > 24 | > 24 | 23
11 | CC(=O)NCCCC[C@H](NC(=O)[C@](C)(CCCCN)NC(=O)[C@H](Cc1ccc2ccccc2c1)NC(=O)[C@H](Cc1ccc(OCCN)cc1)NC(=O)[C@H]1NC(=O)[C@H](CCCNC(N)=O)NC(=O)[C@H](Cc2c[nH]c3c(C)cccc23)NC(=O)[C@H]([C@@H](C)O)NC(=O)[C@H](CC(N)=O)NC(=O)[C@@H](NC(C)=O)C(C)(C)SSC1(C)C)C(=O)N[C@@H](CC(N)=O)C(=O)N[C@H](Cc1ccc(O)cc1)C(N)=O [compound 259] (Ac-[Pen]NT[Trp(7-Me)][Cit][Pen][AEF][2Nal][αMeK]K(Ac)N[dY]-NH2; disulfide 1-6) | 12 | < 1 | > 24 | > 24 | 16
12 | CC(=O)NCCCC[C@H](NC(=O)[C@](C)(CCCCN)NC(=O)[C@H](Cc1ccc2ccccc2c1)NC(=O)[C@H](Cc1ccc(OCCN)cc1)NC(=O)[C@H]1NC(=O)[C@H](CCCNC(N)=O)NC(=O)[C@H](Cc2c[nH]c3c(C)cccc23)NC(=O)[C@H]([C@@H](C)O)NC(=O)[C@H](CC(N)=O)NC(=O)[C@@H](NC(C)=O)C(C)(C)SSC1(C)C)C(=O)N[C@@H](CC(N)=O)C(=O)N[C@H](CO)C(N)=O [compound 261] (Ac-[Pen]NT[Trp(7-Me)][Cit][Pen][AEF][2Nal][αMeK]K(Ac)N[dS]-NH2; disulfide 1-6) | 18 | < 1 | > 24 | > 24 | 4
13 | CC(=O)NCCCC[C@H](NC(=O)[C@](C)(CCCCN)NC(=O)[C@H](Cc1ccc2ccccc2c1)NC(=O)[C@H](Cc1ccc(OCCN)cc1)NC(=O)[C@H]1NC(=O)[C@H](CCCNC(N)=O)NC(=O)[C@H](Cc2c[nH]c3c(C)cccc23)NC(=O)[C@H]([C@@H](C)O)NC(=O)[C@H](CC(N)=O)NC(=O)[C@@H](NC(C)=O)C(C)(C)SSC1(C)C)C(=O)N[C@@H](CC(N)=O)C(=O)N[C@@H](C(N)=O)[C@H](C)O [compound 263] (Ac-[Pen]NT[Trp(7-Me)][Cit][Pen][AEF][2Nal][αMeK]K(Ac)N[dT]-NH2; disulfide 1-6) | 14 | < 1 | > 24 | > 24 | 9
